Laboratory results taken from patent US20210395313A1, “PEPTIDE PAC1 ANTAGONISTS” (AMGEN INC., priority 2017, published 2021).
Where a SMILES comes first, the peptide text is derived from it. Bridges are numbered along the chain shown (N, C = ends). Where no end group is shown, it is not given here.

Tests used:
human PAC1 receptor = target: T1, human PAC1 receptor (Homo sapiens, UniProt P41586); test: LANCE Ultra cAMP accumulation antagonist assay in SHSY-5Y cells; type: cell-based;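 note: inhibition of cAMP accumulation evoked by PAC1 agonist at its EC80 in SHSY-5Y cells endogenously expressing receptor, 30 min preincubation then 15 min agonist, TR-FRET readout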
T1 construct: SHSY-5Y (human neuroblastoma cell line) and RG-2 (rat glioma cell line) cells endogenously express human and rat PAC1 receptors, respectively; endogenous in cells; host or cells: SHSY-5Y human neuroblastoma cells
T1 sequence (P41586 21-468): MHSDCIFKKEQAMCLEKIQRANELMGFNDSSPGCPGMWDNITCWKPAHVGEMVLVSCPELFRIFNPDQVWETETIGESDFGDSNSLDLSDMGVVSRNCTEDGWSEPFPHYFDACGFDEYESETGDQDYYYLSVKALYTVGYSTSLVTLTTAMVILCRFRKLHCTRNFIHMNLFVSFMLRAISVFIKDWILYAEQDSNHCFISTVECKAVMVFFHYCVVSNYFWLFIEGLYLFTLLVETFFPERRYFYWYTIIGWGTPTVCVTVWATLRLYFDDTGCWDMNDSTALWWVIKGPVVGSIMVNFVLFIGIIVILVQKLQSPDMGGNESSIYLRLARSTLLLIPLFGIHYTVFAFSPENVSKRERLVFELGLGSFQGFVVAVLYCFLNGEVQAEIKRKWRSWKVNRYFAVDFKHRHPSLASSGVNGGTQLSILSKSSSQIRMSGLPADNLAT

rat PAC1 receptor = target: T2, rat PAC1 receptor (Rattus norvegicus, UniProt P32215); test: LANCE Ultra cAMP accumulation antagonist assay in RG-2 cells; type: cell-based;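 note: RG-2 rat glioma cells endogenously expressing PAC1, test peptide preincubated 30 min, then PAC1 agonist added at its EC80 for 15 min, cAMP accumulation read by LANCE Ultra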
T2 construct: SHSY-5Y (human neuroblastoma cell line) and RG-2 (rat glioma cell line) cells endogenously express human and rat PAC1 receptors, respectively; endogenous in cells; host or cells: RG-2 rat glioma cells
T2 sequence (P32215 20-523): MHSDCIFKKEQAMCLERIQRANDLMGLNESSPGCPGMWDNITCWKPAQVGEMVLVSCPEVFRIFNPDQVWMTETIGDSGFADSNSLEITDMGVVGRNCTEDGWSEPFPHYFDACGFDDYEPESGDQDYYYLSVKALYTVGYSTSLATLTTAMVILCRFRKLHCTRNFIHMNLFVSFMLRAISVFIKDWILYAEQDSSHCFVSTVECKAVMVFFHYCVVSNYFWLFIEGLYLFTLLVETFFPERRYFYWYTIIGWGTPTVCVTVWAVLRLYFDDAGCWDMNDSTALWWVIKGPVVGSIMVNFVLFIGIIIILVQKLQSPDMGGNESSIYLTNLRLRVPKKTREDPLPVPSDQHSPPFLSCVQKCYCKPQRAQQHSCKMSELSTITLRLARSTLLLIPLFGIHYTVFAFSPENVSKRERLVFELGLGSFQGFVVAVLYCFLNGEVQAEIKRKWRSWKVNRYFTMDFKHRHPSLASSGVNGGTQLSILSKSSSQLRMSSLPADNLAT
Method: In order to determine the potency of peptide antagonists at the PAC1 receptor, functional cAMP accumulation assays using LANCE Ultra cAMP assay kit to measure the agonist and antagonist activity of PAC1 peptides were used. SHSY-5Y (human neuroblastoma cell line) and RG-2 (rat glioma cell line) cells endogenously express human and rat PAC1 receptors, respectively. Agonist activity of PAC1 peptides was tested by incubating with SHSY-5Y at 2,000 cells per well or RG-2 at 5,000 cells per well for 15 minutes at room temperature. PAC1 receptor agonist PACAP38 or maxadilan was included as a positive control. The reaction was stopped by adding detection mixture, europium (Eu) chelate-labeled cAMP tracer and cAMP-specific monoclonal antibodies labeled with the ULight™ dye, to all wells followed by a 60-minute incubation at room temperature. The assay plates were then read on an EnVision instrument at an emission wavelength of 665 and 615 nm and data were analyzed using Genedata Screener or GraphPad Prism software. A similar procedure was used in the antagonist assays by using a fixed concentration of PAC1 agonist. The concentrations of agonists were chosen based on their ECK) values at PAC1 receptors in SHSY-5Y or RG-2 cells. SHSY-5Y or RG-2 cells were added into 96-well half-area white plates. Serially diluted PAC1 peptides at ten concentrations were added and incubated for 30 minutes at room temperature. PAC1 agonist at EC80 concentration was then added and further incubated for 15 minutes at room temperature. The reaction was stopped by adding detection mixture to all wells followed by a 60-minute incubation at room temperature. The assay plates were read and analyzed the same way as that of agonist assay. Cells, agonists, and PAC1 peptides were prepared in freshly made assay buffer (F-12, 0.5 mM IBMX, 0.1 or 0.4% BSA (pH 7.4)). Detection mixture was made by mixing a 1/50 dilution of the Eu-cAMP tracer stock solution in cAMP Detection Buffer and a 1/150 dilution of the ULight-anti-cAMP stock solution in cAMP Detection Buffer. Europium (Eu) chelate-labeled cAMP tracer, cAMP-specific monoclonal antibodies labeled with the ULight™ dye, BSA, and detection buffer were provided in LANCE Ultra cAMP Kit from PerkinElmer

Compound	IC50 (human PAC1 receptor)	IC50 (rat PAC1 receptor)
C#CC[C@@H]1NC(=O)[C@H](CCC(N)=O)NC(=O)[C@H](CCCCN)NC(=O)[C@H](CCC(N)=O)NC(=O)[C@@H](NC(=O)[C@H](CC(=O)O)NC(=O)[C@H](CC(=O)O)NC(=O)[C@@H](NC(=O)[C@H](C)NC(=O)[C@H](CCCCN)NC(=O)[C@H](CCCNC(=N)N)NC(=O)[C@H](Cc2ccccc2)NC(=O)[C@H](CCC(N)=O)NC(=O)[C@@H]2CSSC[C@H](N)C(=O)N[C@@H](CC(=O)O)C(=O)N[C@@H](C)C(=O)N[C@@H]([C@@H](C)O)C(=O)N2)[C@@H](C)CC)CSSC[C@@H](C(=O)N[C@@H](CCSC)C(=O)N[C@@H](CCCCN)C(=O)N[C@@H](CCC(N)=O)C(=O)N[C@@H](CCCCN)C(=O)N[C@@H](CCCCN)C(=O)N[C@@H](CCCCN)C(=O)N[C@@H](CCC(=O)O)C(=O)N[C@@H](Cc2ccccc2)C(=O)N[C@@H](CCCCN)C(=O)N[C@@H](C)C(=O)NCC(N)=O)NC(=O)[C@H](C)NC(=O)[C@H](CCCCN)NC(=O)[C@H](Cc2ccccc2)NC(=O)[C@H](C(C)C)NC(=O)[C@H](CO)NC(=O)CNC(=O)[C@@H]2CCCN2C(=O)[C@H](C(C)C)NC(=O)[C@H](CC(N)=O)NC(=O)[C@H](CO)NC(=O)[C@H](Cc2c[nH]cn2)NC(=O)[C@H](Cc2c[nH]cn2)NC1=O [compound 32]	0.01 to 1 nM	0.01 to 1 nM
CDATCQFRKAIDDCWVQAWHSNVPGSVFKACMKQKKKEFKAG-NH2 (disulfide 1-5, 14-31) [compound 134]	0.01 to 1 nM	0.01 to 1 nM
CDATCQFRKAIDDCQKQAHHSNVPGSVFKACMKQKKKEFKA-NH2 (disulfide 1-5, 14-31) [compound 214]	1 to 100 nM	0.01 to 1 nM
CDATCQFRKAIDDCQKQAHHSNVPGSVFKACMVQKKKEFKAG-NH2 (disulfide 1-5, 14-31) [compound 102]	1 to 100 nM	0.01 to 1 nM
CDATCQFRKAIDDCQKQAHHSNVPGSVFKACMKQKKKEFKAR (disulfide 1-5, 14-31) [compound 68]	0.01 to 1 nM	0.01 to 1 nM
CDATCQFRKAIDDCARQAHHSNVPGSVFKACMKQKKKEWKAGH-NH2 (disulfide 1-5, 14-31) [compound 2]	0.01 to 1 nM	0.01 to 1 nM
CDATCQFRKAIDDCVKQAHHSNVPGSVFKACMKQKKKEFKAGH (disulfide 1-5, 14-31) [SEQ ID NO 94]	0.01 to 1 nM	0.01 to 1 nM
CDATCQFRKAIDDCYYRSWHANVPGSVFKACMKQKKKEWKAGY (disulfide 1-5, 14-31) [compound 66]	0.01 to 1 nM	0.01 to 1 nM
CDATCQFRKAIDDCARQAHHANVPGSVFKACMKQKKKEWKAGH (disulfide 1-5, 14-31) [compound 8]	0.01 to 1 nM	0.01 to 1 nM
CDATCQFRKAIDDCAGRASHANVPGSVFKACMKQKKKEWKAGH-NH2 (disulfide 1-5, 14-31) [compound 425]	0.01 to 1 nM	0.01 to 1 nM
CDATCQFRKAIDDCMWFAWHSNVPGSVFKACMKQKKKEFKAG-NH2 (disulfide 1-5, 14-31) [compound 122]	0.01 to 1 nM	0.01 to 1 nM
CDATCFFRKVIDDCYYRSWHSNVPGSVFKACMKQLKKRWQAG-NH2 (disulfide 1-5, 14-31) [compound 70]	1 to 100 nM	1 to 100 nM
CDATCQFRKAIDDCVFWAAHSNVPGSVFKACMKQKKKEFKAG-NH2 (disulfide 1-5, 14-31) [compound 136]	0.01 to 1 nM	0.01 to 1 nM
CDATCFFRKVIDDCQKQAHHSNVPGSVFKACMKQLKKRWQAG-NH2 (disulfide 1-5, 14-31) [compound 125]	> 100 nM	1 to 100 nM
CDATCQFRKAIDDCAHRAWHSNVPGSVFKLCMKQKKKEWKAGH-NH2 (disulfide 1-5, 14-31) [compound 424]	0.01 to 1 nM	0.01 to 1 nM
CDATCQFRKAIDDCFTWAWHSNVPGSVFKACMKQKKKEFKAG-NH2 (disulfide 1-5, 14-31) [compound 74]	0.01 to 1 nM	0.01 to 1 nM
CDATCQFRKAIDDCAKQAHHSNVPGSVFKLCMKQKKKEFKAG-NH2 (disulfide 1-5, 14-31) [compound 18]	0.01 to 1 nM	< 0.01 nM
CDATCQFRKAIDDCWIVAWHSNVPGSVFKACMKQKKKEFKAG-NH2 (disulfide 1-5, 14-31) [compound 73]	0.01 to 1 nM	0.01 to 1 nM
CC[C@H](C)[C@H](NC(=O)[C@H](C)NC(=O)[C@H](CCCCN)NC(=O)[C@H](CCCNC(=N)N)NC(=O)[C@H](Cc1ccccc1)NC(=O)[C@H](CCC(N)=O)NC(=O)[C@@H]1CSSC[C@H](N)C(=O)N[C@@H](CC(=O)O)C(=O)N[C@@H](C)C(=O)N[C@@H]([C@@H](C)O)C(=O)N1)C(=O)N[C@@H](CC(=O)O)C(=O)N[C@@H](CC(=O)O)C(=O)N[C@H]1CSSC[C@@H](C(=O)N[C@@H](CCSC)C(=O)N[C@@H](CCCCN)C(=O)N[C@@H](CCC(N)=O)C(=O)N[C@@H](CCCCN)C(=O)N[C@@H](CCCCN)C(=O)N[C@@H](CCCCN)C(=O)N[C@@H](CCC(=O)O)C(=O)N[C@@H](Cc2ccccc2)C(=O)N[C@@H](CCCCN)C(N)=O)NC(=O)[C@H](CCC(=O)O)NC(=O)[C@H](CCCCN)NC(=O)[C@H](Cc2ccccc2)NC(=O)[C@H](C(C)C)NC(=O)[C@H](CO)NC(=O)CNC(=O)[C@@H]2CCCN2C(=O)[C@H](C(C)C)NC(=O)[C@H](CC(N)=O)NC(=O)[C@H](CO)NC(=O)[C@H](Cc2c[nH]cn2)NC(=O)[C@H](Cc2c[nH]cn2)NC(=O)[C@H](C)NC(=O)[C@H](CCC(N)=O)NC(=O)[C@H](CCCCN)NC(=O)[C@H](CCC(N)=O)NC1=O [compound 293]	1 to 100 nM	0.01 to 1 nM
CDATCQFRKAIDDCVWKAFHANVPGSVFKACMKQKKKEFKAG-NH2 (disulfide 1-5, 14-31) [compound 118]	0.01 to 1 nM	0.01 to 1 nM
CDATCQFRKAIDDCDRQAHHSNVPGSVFKACMKQKKKEWKAN (disulfide 1-5, 14-31) [compound 159]	1 to 100 nM	0.01 to 1 nM
CDATCQFRKAIDDCYYYAMHSNVPGSVWKACLKQKKKEFKAG-NH2 (disulfide 1-5, 14-31) [compound 78]	0.01 to 1 nM	0.01 to 1 nM
CDATCQFRKAIDDCARQAHHSNVPGSVFKACMKQKKKEYKAGH (disulfide 1-5, 14-31) [compound 10]	0.01 to 1 nM	0.01 to 1 nM
CDATCQFRKAIDDCFTWSWHSNVPGSVFKACMKQKKKEFKAG-NH2 (disulfide 1-5, 14-31) [compound 135]	0.01 to 1 nM	0.01 to 1 nM
CDATCQFRKAIDECAKQAHHSNVPGSVFKACMKQKKKEFKAG-NH2 (disulfide 1-5, 14-31) [compound 12]	0.01 to 1 nM	< 0.01 nM
CSCC[C@@H]1NC(=O)[C@H](C)NC(=O)[C@H](C(C)C)NC(=O)[C@H](CCCCN)NC(=O)[C@H](CCCCN)NC(=O)[C@H](Cc2ccc(O)cc2)NC(=O)[C@H](CC(C)C)NC(=O)[C@@H](NC(=O)[C@H](C)NC(=O)[C@@H](NC(=O)[C@H](CC(C)C)NC(=O)CNC(=O)[C@H](CCCCN)NC(=O)[C@H](CCCNC(=N)N)NC(=O)[C@H](Cc2ccc(O)cc2)NC(=O)[C@H](CCC(N)=O)NC(=O)[C@@H]2CSSC[C@H](N)C(=O)N[C@@H](CC(=O)O)C(=O)N[C@@H](C)C(=O)N[C@@H]([C@@H](C)O)C(=O)N2)C(C)C)CSSC[C@@H](C(=O)N[C@@H](CCSC)C(=O)N[C@@H](CCCCN)C(=O)N[C@@H](CCC(N)=O)C(=O)N[C@@H](CCCCN)C(=O)N[C@@H](CCCCN)C(=O)N[C@@H](CCCCN)C(=O)N[C@@H](CCC(=O)O)C(=O)N[C@@H](Cc2c[nH]c3ccccc23)C(N)=O)NC(=O)[C@H](C)NC(=O)[C@H](CCCCN)NC(=O)[C@H](Cc2ccccc2)NC(=O)[C@H](C(C)C)NC(=O)[C@H](CO)NC(=O)[C@H](Cc2ccc(O)cc2)NC(=O)[C@H](CCCNC(=N)N)NC(=O)[C@H](CCCCN)NC(=O)[C@H](CCC(N)=O)NC1=O [compound 427] (H-CDATCQYRKGLVACLYKKVAMQKRYSVFKACMKQKKKEW-NH2; disulfide 1-5, 14-31)	1 to 100 nM	1 to 100 nM
